Source: paper PMC12442099 (ACS Infectious Diseases, 2025)
≈ marks a conversion by molar mass, not a printed value.

What was measured:
[1] = test system: Rcs stress response in E. coli MC4100 (WT, FQR, GEPR); test: Rcs stress reporter assay in MC4100 wildtype and resistant mutants; type: cell-based; settings: EC80 concentrations
Excerpt: Serial passaging of E. coli MC4100 in the presence of increasing concentrations of lomefloxacin or gepotidacin yielded resistant variants of E. coli MC4100. We used MC4100 to raise resistance, because unlike the screening strain TOP10F’, this strain has a functional SOS stress response, which has been implicated in developing resistance against quinolones. Compounds also elicited a robust Rcs stress response in E. coli MC4100, allowing for this strain to be used for stress assays.
4 Rcs stress induced by EC80 concentrations of (A) lomefloxacin, (B) gepotidacin, (C) A2, and (D) B1 in wildtype (WT), fluoroquinolone resistant (FQR) or gepotidacin resistant (GEPR) bacteria. Graphs show the fold change in fluorescence adjusted for bacterial growth as determined by OD600. Error bars indicate the standard deviation of triplicate samples. Data are representative of three independent experiments with similar results. […]
For lower throughput analysis under laboratory conditions, cultures grown to OD600 of 0.3–0.4 were diluted to a final concnetration of 0.05 OD600 units/mL in black, clear-bottom 96-well plates (Greiner Bio-One B.V.). Plates were incubated in a Biotek HTX or H1 plate reader (Agilent Technologies) at 37 °C with continuous shaking. Kinetic studies were performed by measuring OD600 and fluorescence (Ex./Em. Λ: 485/528 nm) every 20 min for 10h. For end point measurements, fluorescence was measured at T = 0 and once more at T = 150 min.

E. coli TOP10F’ cells = test: Phase contrast and fluorescence microscopy of cell morphology; type: cell-based; settings: EC50 concentrations, 4 h, vs DMSO
Excerpt: DMSO-treated control cells had normal rod-shaped morphology. Drastic changes to cell and membrane morphology were observed following compound treatment.
Cells were stained with Nile red to visualize membranes and Hoechst to label DNA. a: Phase Contrast; b: Nile Red; c: Hoechst; d: overlay of Nile Red and Hoechst. White arrows indicate differences observed between control and compound treated cells, such as different localization and increased number of bright, lipid spots, vesicle-like bulges, apparent leakage of lipid contents and condensed DNA. Pictures are representative of at least 5 images taken per sample, during two independent experiments with similar results. Bottom panels show (B) cell length or (C) cell area after treatment with DMSO or EC50 concentrations of A2 or B1. Cells were analyzed after 4h of compound treatment. Data are representative of two independent experiments with similar results. Data were analyzed using a One-Way ANOVA with Kruskal–Wallis test for multiple comparisons. **** = p < 0.0001. Cells were counted from 3 to 5 pictures of each condition (DMSO: n = 1773, A2: n = 1920, B1: n = 555). Data are representative of two individual experiments with similar results.
Cells were collected at 4600g for 5 min. […]
Images were processed using ImageJ. Cell length and width were quantified using Oufti. Image data were analyzed using GraphPad Prism 10.3.1. […]

[2] = test system: SOS stress response in E. coli MC4100; test: SOS stress reporter assay (PlexA-mNG); type: cell-based; settings: EC80 compound concentrations (Fig. 5A); Fig. S4
Excerpt: To examine the potential link between DNA gyrase inhibition, SOS stress, and CE stress, we designed a fluorescent SOS reporter plasmid, similar to the reporter plasmids used to study CE stresses.
5 (A) SOS stress induced by different compounds at EC80 concentrations in E. coli MC4100. (B) Rcs stress of different compounds at EC80 concentrations in E. coli MC4100. (C) Rcs stress of the nonquinolone gyrase inhibitor LEI-800 in TOP10F’. (D) Rcs stress induced by mitomycin C in E. coli TOP10F’ and E. coli MC4100. Graphs show fold change in fluorescence adjusted for bacterial growth (OD600). Error bars indicate standard deviation of triplicates. Data are representative of two independent experiments with similar results.

[3] = test system: E. coli MC4100 FQR and GEPR mutants; test: Growth kinetics on resistant mutants; type: cell-based; settings: EC80 concentrations, Fig. S3
Procedure: ONC of E. coli MC4100 were diluted to OD600 = 0.07 in 20 mL LB supplemented with an initial concentration of 0.4 μM lomefloxacin, 8 μM gepotidacin, or no antibiotic. After overnight incubation, part of the culture was plated onto LB agar plates with the same concentration of lomefloxacin or gepotidacin to isolate resistant colonies. OD600 of the remaining culture was determined and diluted to OD600 = 0.1 into fresh medium with a 1.5–2-fold increased concentration of lomefloxacin or gepotidacin. […] Resistant colonies were sent for Whole Genome Sequencing using short Illumina reads at MicrobesNG (Birmingham, UK). Sequencing data was analyzed using CLC Genomics Workbench (Qiagen).
Figure S3: Growth kinetics of lomefloxacin, gepotidacin, A2 and B1 on WT, FQR and GEPR mutants. E. coli
TOP10F’ cells were treated with EC80 concentrations of compounds and growth (OD600) recorded over time.
Graphs indicate % growth compared to DMSO control. Error bars indicate standard deviations of triplicates. […]

E. coli TOP10F' = test: Growth inhibition after 7 hours (EC80/EC50); settings: for EC50 / IC80: Escherichia coli, 7 h; for EC50: read-out: EC50 TOP10F'; for IC80: read-out: EC80 TOP10F'
E. coli MC4100 = test: Growth inhibition after 7 hours (EC80/EC50); settings: Escherichia coli, MC4100, 7 h; for EC50: read-out: EC50 MC4100; for IC80: read-out: EC80 MC4100

O=C1COc2ccc(CNC3CCN(CC4Cc5c(F)cc(F)c6ccc(=O)n4c56)CC3)nc2N1 (centres unmarked) [B1]
Rcs stress in FQR (gyrA S83L) mutant [1]: still exhibited Rcs stress | Rcs stress in GEPR mutant [1]: did not show Rcs stress | cell length (E. coli TOP10F’ cells): significantly increased the overall average length of the cells | SOS stress induction in MC4100 [2]: induced SOS stress at similar levels as the FQ lomefloxacin | growth inhibition / susceptibility of FQR (gyrA S83L) mutant [3]: remained susceptible to growth inhibition | growth inhibition / susceptibility of GEPR mutant [3]: exhibited cross-resistance | EC50 (E. coli TOP10F'): 0.031 µg/mL (≈ 0.0644 µM) | IC80 (E. coli TOP10F'): 0.5 µg/mL (≈ 1.04 µM) | EC50 (E. coli MC4100): 0.5 µg/mL (≈ 1.04 µM) | IC80 (E. coli MC4100): 2 µg/mL (≈ 4.15 µM)

CC(C)(C)n1cc(C(=O)O)c(=O)c2cc(F)c(N3CC4CC3CN4)nc21 (centres unmarked) [A2]
Rcs stress in FQR (gyrA S83L) mutant [1]: lacked Rcs stress | cell length (E. coli TOP10F’ cells): significantly increased the overall average length of the cells | SOS stress induction in MC4100 [2]: induced SOS stress at similar levels as the FQ lomefloxacin | growth inhibition / susceptibility of FQR (gyrA S83L) mutant [3]: showed cross-resistance | growth inhibition / susceptibility of GEPR mutant [3]: less susceptible | EC50 (E. coli TOP10F'): 0.016 µg/mL (≈ 0.0444 µM) | IC80 (E. coli TOP10F'): 0.063 µg/mL (≈ 0.175 µM) | EC80 concentration (E. coli TOP10F'; as quoted in the NPN section): around 0.35 μM | EC50 (E. coli MC4100): 0.125 µg/mL (≈ 0.347 µM) | IC80 (E. coli MC4100): 0.25 µg/mL (≈ 0.694 µM)
